These results are taken from paper PMC8704389, “New Insights into the Hypotensins from Tityus serrulatus Venom: Pro-Inflammatory and Vasopeptidases Modulation Activities” (Toxins, 2021).

The subject of series [1] is murine peritoneal macrophages. The series is described as follows: Phagocytic activity of murine peritoneal macrophages (Saccharomyces cerevisiae). The class given is cell-based, BALB/c mice. The note with it: 100 µg/mL, 24 h, then 1 h with Saccharomyces cerevisiae; duplicate; versus negative control. The method, then: Figure 5 Phagocytic activity of the murine peritoneal macrophages stimulated in vitro with TsHpt-I and -II. Peritoneal exudate macrophages from naïve BALB/c mice were cultured on glass coverslips for 24 h in culture medium or in the presence of LPS (5 μg/mL) or TsHpt-I and -II (100 μg/mL). After this period, the cells were incubated for 1 h with a suspension of Saccharomyces cerevisiae. Coverslips were washed, fixed and stained by Giemsa. (A) Phagocytosis images in 400× magnification. (B) The phagocytic index was calculated based on the percentage of phagocytic cells and on the average number of yeasts per cell, by counting approximately 200 cells per coverslip in 1000× magnification. The results represent one of two reproducible experiments performed in duplicate (mean ± SD). * p < 0.05.
Peritoneal macrophages from naïve BALB/c mice (n = 6) were obtained as described above (item 5.5.1). Cells were distributed in 24-well culture plates (5 × 10^5 cells/500 µL/well), with glass coverslips inside, and incubated for 2 h at 37 °C and 5% CO2. […] Phagocytosis was evaluated by immersion optical microscopy (1000×) and quantified by counting approximately 200 cells per cover slip. The percentage of phagocytic cells and the average number of internalized yeasts per phagocytic cell were calculated. […]

For series [2], the system named is murine peritoneal macrophages. The series is described as follows: Cell viability of murine peritoneal macrophages, MTT method. The format is cell-based, BALB/c mice. To be noted: 24 h. The method, then:
Figure 3 Cytotoxic effect of hypotensins I and II on murine peritoneal macrophages in vitro. Peritoneal exudate macrophages from naïve BALB/c mice were cultured for 24 h in the presence of TsHpt-I (A) and -II (B) at concentrations of 10 µg/mL, 50 µg/mL and 100 µg/mL. Cells cultured with medium alone or in the presence of 5 µg/mL LPS were used as the controls. Cell viability was determined by the MTT method. The results represent the mean ± SD of two independent experiments performed in triplicate. * p < 0.05.
Peritoneal exudate cells (BALB/c naïve mice, n = 6) were collected by two washes with 5 mL of RPMI medium. The cells obtained were washed twice with RMPI medium, at 400 g, for 10 min, at 18 °C, and resuspended in R10 medium (RPMI + 10% fetal cow serum). After counting in a Neubauer chamber, in the presence of Trypan blue, the cell concentration was adjusted to 2 × 10^6 cells/mL. Cells were distributed into 96-well culture plates (2 × 10^5 cells/100 µL/well) and incubated for 2 h at 37 °C and 5% CO2. After incubation, non-adherent cells were discarded, and adherent cells (macrophages) were resuspended in R10 medium containing the respective tested stimuli, at different concentrations, in triplicates, in a final volume of 200 µL/well. Cells resuspended in R10 medium were used as a negative control, and cells stimulated with LPS (5 µg/mL) as a positive control. Cells were then incubated for 24 h at 37 °C and 5% CO2. After this period, the culture supernatants were collected and stored at −80 °C, for subsequent dosage of cytokines, and cell viability was determined by MTT assay.
After a 24-h period of incubation of cells with hypotensins (10 µg/mL, 50 µg/mL and 100 µg/mL), MTT assays were performed, consisting of the addition of 100 µL of R10 containing 0.5 mg/mL of tetrazolium salt 3-(4.5-dimethylthiazol-2-yl)-2,5-diphenyltetrazolium bromide (MTT) in all wells, followed by a new incubation, under the same conditions, for 4 h. Then, the supernatants were discarded, and 100 µL/well of DMSO were added to dissolve the formed crystals. Absorbance was determined in a spectrophotometer at 540 nm. Cell viability was calculated based on the absorbances of the samples and the negative control (cells cultivated only with R10).
In general terms: Tetrazolium dyes change colour on reduction, which living cells bring about.

Another series relates to NEP. Briefly: Modulation of NEP activity, FRET substrate Abz-RGFK(Dnp)-OH. The format is biochemical, human. To be noted: 10 µM peptide, 1.5 ng NEP, Abz-RGFK(Dnp)-OH (3.5 µM in method, 10 µM in table note), Tris HCl 50 mM, pH 7.5, 37 °C, 15 min, fluorescence 320/420 nm, triplicate. The procedure:
The results were obtained by incubating the enzymes with their FRET substrates (10 µM) in a final volume of 100 µL. For the ACE assays, the used buffer was Tris HCl 100 mM, NaCl 50 mM and ZnCl2 10 µM, pH 7.0. For NEP, the assays were made in Tris HCl 50 mM, pH 7.5 buffer. All reactions occurred at 37 °C, in a Victor 3 fluorimeter (Perkin–Elmer) adjusted for excitation and emission readings at 320 and 420 nm, respectively, for 15 min (one reader per minute). Results were obtained in triplicate and analyzed on GraFit 5 software.
For ACE assays, 10 µM of each peptide was incubated with 3.0 ng of peptidase and 10 µM of Abz-FRK (Dnp) P-OH substrate, in Tris HCl 100 mM, NaCl 50 mM and ZnCl2 10 µM, pH 7.0 buffer. For NEP, 10 µM of TsHpt-I or -II was incubated with 1.5 ng of peptidase, 3.5 µM Abz-RGFK (Dnp)-OH in Tris HCl 50 mM, pH 7.5 buffer. All reactions occurred at 37 °C, in a final volume of 100 µL, in a Victor 3 fluorimeter (Perkin–Elmer, Waltham, MA, USA) adjusted for excitation and emission readings at 320 and 420 nm, respectively, for 15 min (one reader per minute). Results were obtained in triplicate and analyzed using GraFit 5 (Erithacus software, East Grinstead, West Sussex, UK).

[3] abbreviates: 10 µg/mL, control (medium) = 100%, two independent experiments in triplicate.

No end group written: not given here.

Take AEIDFSGIPEDIIKEIKETNAKPPA [TsHpt-II]: in series [1], the phagocytic index entry is on record as “significant increase in the phagocytic index”. Also, the results for the cell viability entry in series [2] (setting [3]) and in series [2] (100 µg/mL) were “about 75%” and “not able to decrease cellular viability”, respectively. The “NEP Inhibition (%)” value with NEP amounted to 11%.

As to AEIDFSGIPEDIIKQIKETNAKPPA [TsHpt-I], the phagocytic index result in series [1] is reported as “significant increase in the phagocytic index”. The cell viability entry in series [2] (setting [3]) is “about 75%”; in series [2] (100 µg/mL), “not able to decrease cellular viability”. Moreover, in the series on NEP, the “NEP Inhibition (%)” value turned out to be 75%.
